In US12187663B2, “Thyromimetics with a biphenylmethane scaffold and their use” (INTERNATIONAL SOCIETY FOR DRUG DEVELOPMENT S.R.L., priority 2019, dated 2025):

Columns and labels:
HepG2 cells [1] = test: Cell viability MTT assay; type: cell-based; conditions: 1-10 μM, 24 h
Procedure: HepG2 cells were seeded in a 96-well plate (Corning, USA) at a density of 1.0×10^4 cells/well with DMEM (200 μl/well), and then incubated for 24 h according to routine procedure. After being treated with test compounds (1-10 μM) and incubated for 24 h (8 wells for each sample), 20 μL/well MTT (5 g/L) was added to each well. The medium was then removed after 4 h incubation and 100 μL/well sodium dodecyl sulfate (SDS)-HCl solution was added to dissolve the reduced formazan product after incubation for 16 h at 37° C. Finally, the plate was read at 570 nm, using a micro-plate reader (Bio-Rad 680, USA).

AMPK = test: Western blot of phosphorylated AMPK in HepG2 cells; type: cell-based, Human; conditions: twenty-four hours of treatment, dose dependent
Procedure: (§1) Human hepatocellular carcinoma cells (HepG2), obtained from American Type Culture Collection (Manassas, Va., USA), were cultured in low-glucose (LG) Dulbecco's modified Eagle's medium (DMEM) ([…], Invitrogen, Carlsbad, Calif., USA) or high-glucose (HG) DMEM ([…]) supplemented with 10% fetal bovine serum (FBS) and […] penicillin/streptomycin in an atmosphere of 5% CO2 at 37° C. These cells were then treated with tested compounds at various concentrations for 24 h. After treatments, cells were lysed in a buffer containing 20 mM Tris-HCl (pH 7.5), 0.9% NaCl, 0.2% Triton X-100, and 1% of the protease inhibitor cocktail (Sigma-Aldrich, Milan, Italy) and then stored at −80° C. for further western blot analysis. All the analyses were conducted on cells between the third and the sixth passage.
(§2) Proteins (20-30 μg) were separated on CriterionTGX™ gel (4-20%) and transferred on Immuno-PVDF membrane (Biorad, Milan, Italy) for 1 h. Blots were incubated with the primary antibody at 4° C. overnight. All the polyclonal antibodies for the protein of interest were purchased from Santa Cruz Biotechnology, Inc., Dallas, TX, USA. Then, blots were washed 3 times for 10 minutes with 1×TBS, 0.1% Tween® 20 and incubated for 1 h with secondary antibody (peroxidase-coupled anti rabbit in 1×TBS, 0.1% Tween®20). […] Band densitometric analysis was performed using Image Lab Software (Biorad, Milan, Italy).
(§3) The liver is a major organ responsible for most functions of cellular metabolism and a mediator between dietary and endogenous sources of energy for extrahepatic tissues. In this context, AMPK constitutes an intrahepatic energy sensor regulating physiological energy dynamics by limiting anabolism and stimulating catabolism, thus increasing ATP availability. Once activated, AMPK phosphorylates its downstream substrates to reduce ATP-consuming anabolic pathways, including cholesterol, fatty acid, and triacylglycerol synthesis, and increases ATP-generating catabolic pathways, including fatty acid oxidation and lipolysis. […]

ACC = test: Western blot of phosphorylated ACC in HepG2 cells; type: cell-based, Human; conditions: twenty-four hours of treatment
Procedure: as §1, §2, §3

pancreatic acinar cells = test: Pancreatic acinar cell proliferation (BrdU labeling index); type: in vivo, rats; conditions: one week; T3 4 mg/kg diet; GC1 50 μg/kg gavage once daily; TG68 and IS25 50 μg/kg in drinking water
Procedure: FIG. 9. […] BrdU (1 mg/ml) in drinking water was given all throughout the experimental time. […] LI was expressed as number of BrdU-positive acinar cell nuclei/100 nuclei. At least 2000 acinar cells per pancreas were scored. Results are expressed as means±SE of 3 to 5 rats per group. (one way ANOVA). ***Statistically significant from control; P<0.001.
BrdU (1 mg/ml) in drinking water was given all throughout the experimental time. […] LI was expressed as number of BrdU-positive acinar cell nuclei/100 nuclei. At least 2000 acinar cells per pancreas were scored.

[2] = known property of the reference; cited from earlier work
HepG2 cells [3] = test: Total lipid accumulation by Oil Red O staining; type: cell-based, Human; conditions: 25 μM
Procedure: Total lipid accumulation was evaluated according to the method previously described by Liu et al.. […] Cloroquine (25 μM) and Isoproterenol (10 μM) were used as positive controls. Subsequently, after collecting the growth media to be used to perform glycerol level measurements (as detailed below), cells were rinsed twice with PBS and fixed in 4% paraformaldehyde in PBS for 30 min. Then, cells were stained with Oil Red O working solution for 1 h at room temperature and subsequently rinsed with water.
The Oil Red O stock solution was prepared by dissolving 0.35 g of Oil Red O (Sigma Aldrich, Milan, Italy) in 100 mL of isopropanol by gentle heating and then cooled and filtered through a 0.45 μm filter. The working solution was prepared by diluting three parts of the stock solution in two parts of MilliQ water (stock solution:MilliQ water; 3:2 v/v). The cell images were captured with a Leitz Fluovert FU (Leica Microsystems, Wetzlar, Germany) microscope. Lipids appeared red. For quantitative analysis of cellular lipids, 1 mL isopropanol was added to each well of the stained culture plate. The extracted dye was immediately removed by gentle pipetting and its absorbance was measured at 510 nm.

SMILES: N[C@@H](Cc1cc(I)c(Oc2ccc(O)c(I)c2)c(I)c1)C(=O)O [Compound T3, 3,5,3′-triiodothyronine, reference compound]
- cell viability (cell death with respect to control) (HepG2 cells [1]): did not significantly (p<0.05) cause cell death
- expression of p-AMPK (AMPK): significantly (p<0.05) increased
- ACC phosphorylation (p-ACC) (ACC): significant ACC phosphorylation

SMILES: Cc1cc(OCC(=O)O)cc(C)c1Cc1ccc(O)c(C(C)C)c1 [GC-1, Sobetirome, reference compound]
- pancreatic acinar cell proliferation (BrdU-positive acinar cells) (pancreatic acinar cells): Several BrdU-positive acinar cells were observed
- solubility in water [2]: insoluble compound in water

SMILES: CCN(CC)CCCC(C)Nc1ccnc2cc(Cl)ccc12 (stereo not drawn) [Cloroquine]
- red lipid droplets (Oil Red O), steatosis-inducing positive control (HepG2 cells [3]): high amount of red lipid droplets
